One test deals with T1, hAChE (Homo sapiens, UniProt P22303).
T1 construct: 8.3 μL of either blood cell lysate or plasma dilutions; from tissue; host or cells: blood cell lysate
As to the kind of experiment: biochemical. The conditions noted are these: for IC50: mean ± SD of three independent measurements, each in triplicate; for inhibition at 100 µM: tested at 100 µM compound concentration, read-out: %Inhibition hAChE ± SD. The protocol:
(§1) The hAChE and hBuChE activities were determined using a modified method of Ellman, as described. Briefly, hAChE and hBuChE activities were determined using a modified method of Ellman, with acetylthiocholine iodide (ATChI) and butyrylthiocholine iodide (BuTChI) as substrates, respectively. Briefly, 8.3 μL of either blood cell lysate or plasma dilutions (at least six different concentrations), 283 μL of 5 mM 5,5′-dithiobis-2-nitrobenzoic acid (DTNB) and 8.3 μL of the sample dilution in dimethyl sulfoxide (DMSO) (40 mM, 10 mM, 4 mM, 1 mM, 0.4 mM, and 0 mM) were added to the semi-micro cuvette. The reaction was initiated by addition of 33.3 μL 10 mM substrate (ATChI or BuTChI). The final proportion of DTNB and substrate was […]. The increase of absorbance (ΔA) at 436 nm for AChE and 412 nm for BuChE was measured for 1 min at 37 °C using a spectrophotometer (Synergy^TM HT Multi-Detection Microplate Reader). Each measurement was repeated six times for every concentration of enzyme preparation.

The target in another test is T2, hBuChE (Homo sapiens, UniProt P06276).
T2 construct: 8.3 μL of either blood cell lysate or plasma dilutions; from tissue; host or cells: plasma
Briefly: biochemical. Type of test: biochemical. The conditions noted are these: for IC50: mean ± SD of three independent measurements, each in triplicate; for SI for hBuChE: ratio hAChE IC50/hBuChE IC50; for inhibition at 100 µM: tested at 100 µM compound concentration, read-out: % inhibition hBuChE ± SD. The protocol:
as §1

A further test has as its target T3, POP (EC 3.4.21.26) (Homo sapiens, UniProt P48147).
T3 sequence (P48147 1-710): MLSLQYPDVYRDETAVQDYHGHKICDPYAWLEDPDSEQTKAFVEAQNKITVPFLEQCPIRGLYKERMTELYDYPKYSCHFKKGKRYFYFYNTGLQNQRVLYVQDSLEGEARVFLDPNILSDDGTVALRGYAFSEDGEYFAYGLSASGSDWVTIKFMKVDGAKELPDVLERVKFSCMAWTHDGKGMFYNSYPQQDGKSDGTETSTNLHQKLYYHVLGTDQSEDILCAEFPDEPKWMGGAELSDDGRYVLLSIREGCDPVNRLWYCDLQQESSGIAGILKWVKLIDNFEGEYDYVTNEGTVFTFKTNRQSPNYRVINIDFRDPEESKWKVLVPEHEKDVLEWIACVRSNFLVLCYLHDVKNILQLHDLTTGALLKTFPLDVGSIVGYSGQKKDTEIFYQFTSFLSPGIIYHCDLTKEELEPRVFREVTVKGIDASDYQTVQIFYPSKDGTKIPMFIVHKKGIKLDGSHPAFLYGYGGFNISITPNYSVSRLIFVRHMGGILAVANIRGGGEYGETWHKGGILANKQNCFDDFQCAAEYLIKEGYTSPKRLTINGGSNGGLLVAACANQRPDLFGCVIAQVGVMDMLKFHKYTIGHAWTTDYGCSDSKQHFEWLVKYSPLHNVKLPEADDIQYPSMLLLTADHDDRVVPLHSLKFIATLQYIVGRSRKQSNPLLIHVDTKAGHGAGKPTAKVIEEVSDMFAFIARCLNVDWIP
Briefly: POP inhibition assay. It is filed as biochemical. The protocol: POP (EC 3.4.21.26) was dissolved in phosphate-buffered saline (PBS; 0.01 M Na/K phosphate buffer, pH 7.4, containing 137 mM NaCl and 2.7 mM KCl); the specific activity of the enzyme was 0.2 U/mL. The assay was performed in standard polystyrene 96-well microplates with a flat and clear bottom. Stock solutions of tested compounds were prepared in DMSO (10 mM). Dilutions (10^−3 to 10^−7 M) were prepared from the stock solution with deionized H2O; the control was performed with the same DMSO concentration. POP substrate, (Z)-Gly-Pro-p-nitroanilide, was dissolved in 50% 1,4-dioxane (5 mM). For each reaction, PBS (170 μL), tested compound (5 μL), and POP (5 μL) were incubated for 5 min at 37 °C. Then, substrate (20 μL) was added, and the microplate was incubated for 30 min at 37 °C. The formation of p-nitroanilide, directly proportional to the POP activity, was measured spectrophotometrically at 405 nm using a microplate ELISA reader (multimode microplate reader Synergy 2, BioTek Instruments, Winooski, VT, USA). […] All calculations were performed using GraphPad Prism software version 7.03 for Windows (GraphPad Software Inc., San Diego, California, USA).

T1 sequence (P22303 other isoform, or with tags, fused parts or gaps): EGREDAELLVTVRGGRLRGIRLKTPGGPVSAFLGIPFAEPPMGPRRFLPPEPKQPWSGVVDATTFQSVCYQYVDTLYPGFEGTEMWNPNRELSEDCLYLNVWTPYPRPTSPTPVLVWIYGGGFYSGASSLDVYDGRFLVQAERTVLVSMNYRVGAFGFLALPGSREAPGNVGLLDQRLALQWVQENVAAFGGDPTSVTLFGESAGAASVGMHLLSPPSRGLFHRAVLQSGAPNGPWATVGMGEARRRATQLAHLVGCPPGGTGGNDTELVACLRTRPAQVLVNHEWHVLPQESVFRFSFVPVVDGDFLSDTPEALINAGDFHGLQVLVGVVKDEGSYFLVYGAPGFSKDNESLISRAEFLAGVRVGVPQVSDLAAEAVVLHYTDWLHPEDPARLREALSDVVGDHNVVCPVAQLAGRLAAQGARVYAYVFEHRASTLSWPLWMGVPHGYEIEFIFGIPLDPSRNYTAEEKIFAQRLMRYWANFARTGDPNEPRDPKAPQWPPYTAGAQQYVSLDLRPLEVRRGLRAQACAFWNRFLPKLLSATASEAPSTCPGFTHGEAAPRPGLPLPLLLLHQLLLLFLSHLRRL

As a reminder, the IC50 is the point on the concentration scale where inhibition reaches its midpoint. Usually inhibition stands for the change of the read-out against control, counted positive when it falls. Regarding `COc1cc(CN(CCc2ccc(O)cc2)Cc2cc(OC)c(OC)cc2-c2cccc3c2N(C)CC3)c(-c2cccc3c2N(C)CC3)cc1OC` [Carltonine C (15), carltonine C], at hAChE, the half-maximal inhibitory concentration (IC50) is over 100 µM and the inhibition at 100 µM stood at 9%. At hBuChE, the half-maximal inhibitory concentration (IC50) turned out to be 14.8 ± 1.1 µM, the “SI for hBuChE” value is over 7 and the inhibition at 100 µM was determined as 78 ± 1%.

With `COc1cc(C=O)c(-c2cccc3c2N(C)CC3)cc1OC` [Lycosinine B (1), lycosinine B], the IC50 on hAChE was over 100 µM; at POP (EC 3.4.21.26) it was 258 ± 14 µM; at hBuChE, over 100 µM. The inhibition at 100 µM at hAChE came to 28 ± 1%; at hBuChE, 42 ± 1%.

As to `CN(CCc1ccc(O)cc1)Cc1cc2c(cc1-c1cccc3c1N(C)CC3)OCO2` [Carltonine B (14), carltonine B], the IC50 on hAChE is over 100 µM; at hBuChE, 0.031 ± 0.001 µM. The inhibition at 100 µM on hAChE was determined as 40 ± 1%; at hBuChE, 99 ± 1%. In addition, the entries for the “SI for hBuChE” value on hBuChE and on hBuChE (listed as carltonine B (14)) were over 3226 and “higher than 100”, respectively.

Take `COc1ccc2c3c1O[C@H]1C=CC=C[C@@]31CCN(C)C2` [3,4-Anhydrogalanthamine (3), 3,4-anhydrogalanthamine]: on hAChE, the half-maximal inhibitory concentration (IC50) was over 100 µM and the inhibition at 100 µM stood at 4%. For the same molecule, at hBuChE, the half-maximal inhibitory concentration (IC50) is over 100 µM and the inhibition at 100 µM came to 28 ± 1%.

As to `COc1cc(CN(C)CCc2ccc(O)cc2)c(-c2cccc3c2N(C)CC3)cc1OC` [Carltonine A (13), carltonine A], the results for the IC50 at hAChE, on POP (EC 3.4.21.26) and on hBuChE were over 100 µM, 143 ± 12 µM and 0.91 ± 0.02 µM, respectively. Moreover, the inhibition at 100 µM on hAChE amounted to 2%; at hBuChE it was 98 ± 1%. In addition, the “SI for hBuChE” value on hBuChE is reported as over 110; at hBuChE (listed as carltonine A (13)), “higher than 100”.

For the molecule `c1ccc2c(c1)ncc1cc3c(cc12)OCO3` [Trispheridine (2), trisphaeridine], at hAChE, the half-inhibitory concentration (IC50) was over 100 µM and the inhibition at 100 µM stood at 6 ± 1%. In addition, at hBuChE, the 50% inhibitory concentration (IC50) is over 100 µM and the inhibition at 100 µM stood at 13 ± 1%.

The values above are taken from PMC7277649, “Amaryllidaceae Alkaloids of Belladine-Type from Narcissus pseudonarcissus cv. Carlton as New Selective Inhibitors of Butyrylcholinesterase” (Biomolecules, 2020).
